Like-named read-outs stand apart in the source and are kept apart here.
Experiments:
HepG2 cells = test: HepG2 cytotoxicity counter-screen; details: cytotoxic activity against HepG2 cells
[1] = tested on: P. falciparum male gametocytes; test: P. falciparum Dual Gamete Formation Assay (PfDGFA), male readout (exflagellation); assay type: cell-based, Plasmodium falciparum NF54; details: for HitlevelM: number of replicates with >50% inhibition in the male readout; for Selectivity Ratio M: HepG2 Tox50 versus male IC50; for IC50: PfDGFA, 24 h incubation with gametocytes before induction, exflagellation readout, read-out: Male IC50
In short: (§1)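 Two sex-specific readouts come from one well: male exflagellation centres recorded by brightfield video right after activation, and female gametes scored by Cy3-anti-Pfs25 fluorescence after 24 h at 28°C.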

[2] = tested on: P. falciparum female gametocytes; test: P. falciparum Dual Gamete Formation Assay (PfDGFA), female readout (Pfs25-positive female gametes); assay type: cell-based, Plasmodium falciparum NF54; details: for HitlevelF: number of replicates with >50% inhibition in the female readout; for Selectivity ratio F: HepG2 Tox50 versus female IC50; for IC50: PfDGFA, 24 h incubation with gametocytes before induction, female gamete readout, read-out: Female IC50
In short: as §1

[3] = PfDGFA at 2µM, 24h preincubation with gametocytes, average of replicates
[4] = PfDGFA at 2µM, 24h preincubation with gametocytes, replicate R1
[5] = PfDGFA at 2µM, 24h preincubation with gametocytes, replicate R3
[6] = PfDGFA at 2µM, 24h preincubation with gametocytes, replicate R4
[7] = Plasmodium falciparum, 2µM, 24h preincubation with gametocytes, average of replicates, read-out: Average inhibition male (%)
[8] = Plasmodium falciparum, 2µM, 24h preincubation with gametocytes, replicate R1, read-out: % inhibition male (individual replicates) R1
[9] = Plasmodium falciparum, 2µM, 24h preincubation with gametocytes, replicate R2, read-out: % inhibition male (individual replicates) R2
[10] = Plasmodium falciparum, 2µM, 24h preincubation with gametocytes, replicate R3, read-out: % inhibition male (individual replicates) R3
[11] = Plasmodium falciparum, 2µM, 24h preincubation with gametocytes, replicate R4, read-out: % inhibition male (individual replicates) R4
[12] = Plasmodium falciparum, 2µM, 24h preincubation with gametocytes, average of replicates, read-out: Average inhibition female (%)
[13] = Plasmodium falciparum, 2µM, 24h preincubation with gametocytes, replicate R1, read-out: % inhibition female (individual replicates) R1
[14] = Plasmodium falciparum, 2µM, 24h preincubation with gametocytes, replicate R2, read-out: % inhibition female (individual replicates) R2
[15] = Plasmodium falciparum, 2µM, 24h preincubation with gametocytes, replicate R3, read-out: % inhibition female (individual replicates) R3
[16] = Plasmodium falciparum, 2µM, 24h preincubation with gametocytes, replicate R4, read-out: % inhibition female (individual replicates) R4
[17] = 2µM, 24h preincubation with gametocytes, average of replicates
[18] = 2µM, 24h preincubation with gametocytes, replicate R1
[19] = 2µM, 24h preincubation with gametocytes, replicate R4
[20] = 2µM, 24h preincubation with gametocytes prior to induction of gametogenesis, average of replicates
[21] = 2µM, 24h preincubation with gametocytes prior to induction of gametogenesis, replicate R1
[22] = 2µM, 24h preincubation with gametocytes prior to induction of gametogenesis, replicate R3
[23] = 2µM, 24h preincubation with gametocytes prior to induction of gametogenesis, replicate R4

SMILES | IC50 ([1]; Plasmodium falciparum) [µM] | IC50 ([2]; Plasmodium falciparum) [µM] | IC50 [1] [µM] | IC50 [2] [µM] | Tox50 (HepG2 cells) [µM] | Selectivity Ratio M [1] | Selectivity ratio F [2] | Average inhibition male (%) [1, 3] [%] | % inhibition male (individual replicates) R1 [1, 4] [%] | % inhibition male (individual replicates) R3 [1, 5] [%] | % inhibition male (individual replicates) R4 [1, 6] [%] | HitlevelM ([1]; 2µM) | Average inhibition female (%) [2, 3] [%] | % inhibition female (individual replicates) R1 [2, 4] [%] | % inhibition female (individual replicates) R3 [2, 5] [%] | % inhibition female (individual replicates) R4 [2, 6] [%] | HitlevelF ([2]; 2µM) | inhibition at 2 µM [1, 7] [%] | inhibition at 2 µM [1, 8] [%] | inhibition at 2 µM [1, 9] [%] | also measured
CN1CCN(c2ccc(Nc3c4ccccc4nc4ccccc34)cc2)CC1 [TCMDC-123912] | 0.59 | 8.84 | – | – | 26.65 | 45.1 | 3.01 | – | – | – | – | – | – | – | – | – | – | – | – | – | HitlevelM ([1]; 2µM, 24h preincubation): 3; inhibition at 2 µM ([1]; Plasmodium falciparum, 2µM, 24h preincubation with gametocytes prior to induction of gametogenesis, average of replicates, read-out: Average inhibition male (%)): 62.8%; inhibition at 2 µM ([1]; Plasmodium falciparum, 2µM, 24h preincubation with gametocytes prior to induction of gametogenesis, replicate R1, read-out: % inhibition male (individual replicates) R1): 83%; inhibition at 2 µM ([1]; Plasmodium falciparum, 2µM, 24h preincubation with gametocytes prior to induction of gametogenesis, replicate R2, read-out: % inhibition male (individual replicates) R2): 83.6%; inhibition at 2 µM ([1]; Plasmodium falciparum, 2µM, 24h preincubation with gametocytes prior to induction of gametogenesis, replicate R3, read-out: % inhibition male (individual replicates) R3): 12.9%; inhibition at 2 µM ([1]; Plasmodium falciparum, 2µM, 24h preincubation with gametocytes prior to induction of gametogenesis, replicate R4, read-out: % inhibition male (individual replicates) R4): 71.6%; HitlevelF ([2]; 2µM, 24h preincubation): 0; inhibition at 2 µM ([2]; Plasmodium falciparum, 2µM, 24h preincubation with gametocytes prior to induction of gametogenesis, average of replicates, read-out: Average inhibition female (%)): 9.1%; inhibition at 2 µM ([2]; Plasmodium falciparum, 2µM, 24h preincubation with gametocytes prior to induction of gametogenesis, replicate R1, read-out: % inhibition female (individual replicates) R1): 23.8%; inhibition at 2 µM ([2]; Plasmodium falciparum, 2µM, 24h preincubation with gametocytes prior to induction of gametogenesis, replicate R2, read-out: % inhibition female (individual replicates) R2): 8%; inhibition at 2 µM ([2]; Plasmodium falciparum, 2µM, 24h preincubation with gametocytes prior to induction of gametogenesis, replicate R3, read-out: % inhibition female (individual replicates) R3): 0.7%; inhibition at 2 µM ([2]; Plasmodium falciparum, 2µM, 24h preincubation with gametocytes prior to induction of gametogenesis, replicate R4, read-out: % inhibition female (individual replicates) R4): 4.1%
COc1ccc(C[C@H](N)C(=O)N[C@H]2[C@@H](O)[C@H](n3cnc4c(N(C)C)ncnc43)O[C@@H]2CO)cc1.Cl [TCMDC-123927] | – | – | 0.41 | 4 | 2.01 | 4.87 | 0.5 | 79.6 | 87.8 | 64.7 | 82.2 | 4 | 38.8 | 27.9 | 10.7 | 72.0 | 1 | – | – | – | –
CCc1cc2c(Sc3nnc(N)s3)ncnc2s1 [TCMDC-123993] | 0.98 | 0.74 | – | – | 61 | 62.08 | 82.32 | – | – | – | – | 4 | – | – | – | – | 3 | – | – | – | inhibition at 2 µM ([1]; Plasmodium falciparum, PfDGFA at 2µM, 24h preincubation with gametocytes, average of replicates, read-out: Average inhibition male (%)): 88.1%; inhibition at 2 µM ([1]; Plasmodium falciparum, PfDGFA at 2µM, 24h preincubation with gametocytes, replicate R1, read-out: % inhibition male (individual replicates) R1): 91.2%; inhibition at 2 µM ([1]; Plasmodium falciparum, PfDGFA at 2µM, 24h preincubation with gametocytes, replicate R2, read-out: % inhibition male (individual replicates) R2): 88.6%; inhibition at 2 µM ([1]; Plasmodium falciparum, PfDGFA at 2µM, 24h preincubation with gametocytes, replicate R3, read-out: % inhibition male (individual replicates) R3): 87.9%; inhibition at 2 µM ([1]; Plasmodium falciparum, PfDGFA at 2µM, 24h preincubation with gametocytes, replicate R4, read-out: % inhibition male (individual replicates) R4): 84.9%; inhibition at 2 µM ([2]; Plasmodium falciparum, PfDGFA at 2µM, 24h preincubation with gametocytes, average of replicates, read-out: Average inhibition female (%)): 62.7%; inhibition at 2 µM ([2]; Plasmodium falciparum, PfDGFA at 2µM, 24h preincubation with gametocytes, replicate R1, read-out: % inhibition female (individual replicates) R1): 49.4%; inhibition at 2 µM ([2]; Plasmodium falciparum, PfDGFA at 2µM, 24h preincubation with gametocytes, replicate R2, read-out: % inhibition female (individual replicates) R2): 83%; inhibition at 2 µM ([2]; Plasmodium falciparum, PfDGFA at 2µM, 24h preincubation with gametocytes, replicate R3, read-out: % inhibition female (individual replicates) R3): 66.2%; inhibition at 2 µM ([2]; Plasmodium falciparum, PfDGFA at 2µM, 24h preincubation with gametocytes, replicate R4, read-out: % inhibition female (individual replicates) R4): 52.3%
[O-][s+]1c(Cl)c(-c2ccc(Cl)cc2)c2ccc(Cl)cc21 (stereo not shown) [TCMDC-124011] | 0.14 | 0.14 | – | – | 17.6 | 123.92 | 125.38 | – | – | – | – | – | – | – | – | – | – | 99.1 | 99.4 | 99.6 | inhibition at 2 µM [1, 10]: 98.6%; inhibition at 2 µM [1, 11]: 98.9%; inhibition at 2 µM [2, 12]: 46.7%; inhibition at 2 µM [2, 13]: 29.4%; inhibition at 2 µM [2, 14]: 65.7%; inhibition at 2 µM [2, 15]: 37%; inhibition at 2 µM [2, 16]: 54.7%
CCCCOc1ccc(C(=O)C(CCC(CNC(C)(C)C)C(=O)c2ccc(OCCCC)cc2)CNC(C)(C)C)cc1.Cl (stereo not shown) [TCMDC-124120] | – | – | 1.5 | 4.06 | 3.4 | 2.27 | 0.84 | 78.6 | 81.6 | 47.4 | 92.9 | 3 | 46.8 | 36.1 | 20.3 | 72.1 | 2 | – | – | – | –
Cl.Cl.c1ccc2c(NCCCCCCNc3c4ccccc4nc4ccccc34)c3ccccc3nc2c1 [TCMDC-124285] | – | – | 1.68 | 3.18 | 6.2 | 3.7 | 1.95 | – | – | – | – | – | – | – | – | – | – | – | – | – | Average inhibition male (%) [1, 17]: 93.2%; % inhibition male (individual replicates) R1 [1, 18]: 96.3%; % inhibition male (individual replicates) R4 [1, 19]: 88.4%; Average inhibition female (%) [2, 17]: 50.4%; % inhibition female (individual replicates) R1 [2, 18]: 48.2%; % inhibition female (individual replicates) R3 ([2]; 2µM, 24h preincubation with gametocytes, replicate R3): 44.8%; % inhibition female (individual replicates) R4 [2, 19]: 50.1%
Cl.c1ccc2c(NCCCCCCCCCNc3c4ccccc4nc4ccccc34)c3ccccc3nc2c1 [TCMDC-124286] | – | – | 1.96 | 4.81 | 6.29 | 3.22 | 1.31 | – | – | – | – | – | – | – | – | – | – | – | – | – | Average inhibition male (%) [1, 20]: 61.5%; % inhibition male (individual replicates) R1 [1, 21]: 79.2%; % inhibition male (individual replicates) R3 [1, 22]: 1.0%; % inhibition male (individual replicates) R4 [1, 23]: 84.9%; HitlevelM ([1]; 2µM, 24h preincubation): 3; Average inhibition female (%) [2, 20]: 43.1%; % inhibition female (individual replicates) R1 [2, 21]: 36.0%; % inhibition female (individual replicates) R3 [2, 22]: 18.9%; % inhibition female (individual replicates) R4 [2, 23]: 71.3%; HitlevelF ([2]; 2µM, 24h preincubation): 1

The next lines start with results.

IC50 ([1]; Plasmodium falciparum) [µM] | IC50 ([2]; Plasmodium falciparum) [µM] | IC50 [1] [µM] | IC50 [2] [µM] | SMILES | Tox50 (HepG2 cells) [µM] | Selectivity Ratio M [1] | Selectivity ratio F [2] | Average inhibition male (%) [1, 3] [%] | % inhibition male (individual replicates) R1 [1, 4] [%] | % inhibition male (individual replicates) R3 [1, 5] [%] | % inhibition male (individual replicates) R4 [1, 6] [%] | HitlevelM ([1]; 2µM) | Average inhibition female (%) [2, 3] [%] | % inhibition female (individual replicates) R1 [2, 4] [%] | % inhibition female (individual replicates) R3 [2, 5] [%] | % inhibition female (individual replicates) R4 [2, 6] [%] | HitlevelF ([2]; 2µM) | inhibition at 2 µM [1, 7] [%] | inhibition at 2 µM [1, 8] [%] | inhibition at 2 µM [1, 9] [%] | also measured
– | – | 1.77 | 6.98 | CCN1CCN(c2ccc(Nc3c4ccccc4nc4ccccc34)cc2)CC1 [TCMDC-124255] | 14.96 | 8.44 | 2.14 | 77.2 | 84.6 | 78.3 | 87.4 | 4 | -4.4 | -2.2 | -22.1 | 3.0 | 0 | – | – | – | –
0.94 | 1.78 | – | – | O=C1Nc2ccccc2C1=NNC(=S)N1CCOCC1 [TCMDC-124263] | 46.3 | 49.26 | 25.94 | – | – | – | – | – | – | – | – | – | – | 98.7 | 98.4 | 100 | inhibition at 2 µM [1, 10]: 99.2%; inhibition at 2 µM [1, 11]: 96.9%; inhibition at 2 µM [2, 12]: 55.9%; inhibition at 2 µM [2, 13]: 38.4%; inhibition at 2 µM [2, 14]: 72%; inhibition at 2 µM [2, 15]: 48.4%; inhibition at 2 µM [2, 16]: 64.6%
0.4 | 0.31 | – | – | C=CCN(C(=O)c1ccc(Cl)c([N+](=O)[O-])c1)c1nc(-c2ccccc2)cs1 [TCMDC-124436] | 27.57 | 69.29 | 88.48 | – | – | – | – | – | – | – | – | – | – | 99.6 | 99.4 | 98.5 | inhibition at 2 µM [1, 10]: 102%; inhibition at 2 µM [1, 11]: 98.2%; inhibition at 2 µM [2, 12]: 53%; inhibition at 2 µM [2, 13]: 34.2%; inhibition at 2 µM [2, 14]: 85.7%; inhibition at 2 µM [2, 15]: 53.1%; inhibition at 2 µM [2, 16]: 38.9%

Reference: PMC10584170, “Machine learning-based phenotypic imaging to characterise the targetable biology of Plasmodium falciparum male gametocytes for the development of transmission-blocking antimalarials” (PLOS Pathogens, 2023)
